{"source": "patent US12326492B2", "about": "“Systems and methods of detecting interstitial cystitis” (LIPELLA PHARMACEUTICALS, INC., priority 2014, dated 2025)"}
{"assay": "MRI bladder phantom permeability assay (dialysis membrane in gelatin, spin-echo MRI)", "format": "physicochemical", "details": "membrane 12-14 kD MW cutoff, 425 μM Gd-DTPA, 5 mM Ferumoxytol in lumen", "description": "FIG. 2 is a schematic of synthetic model system (an MRI “bladder phantom”) where membrane porosity and soft matter diffusivity can be controlled. The MRI bladder phantom, shown in FIG. 2, was constructed from clear polycarbonate cylindrical tubes having an outer diameter of 35 mm, a wall thickness of 4 mm, and a length of 90 mm. A sealed (70 mm length, 7 mm diameter) segment of a filled wet dialysis membrane was suspended in the center of each polycarbonate tube lumen and aligned with the tube length, during which a liquid solution (3.125% w/w) of hydrolyzed collagen was added to the lumen of the tube (but not the lumen of the dialysis membrane) and allowed to gel. The dialysis membrane porosity was 12-14 kD MW cutoff. The bladder phantom was placed in a standard mouse MRI RF coil for imaging on a 3-Tesla bench top MRI system with a bore diameter of 160 mm and a 70 mm field of view (MR Solutions, Surrey, UK). […]\nThis dark line is indicative of a lack of hydrogen nuclei in the liquid state where the dialysis membrane is located, a position that represents the luminal surface of the bladder. […] Since the entire lumen has an increased signal intensity, it is difficult to see without quantitative tools if the gadopentetate dimeglumine (Gd-DTPA) is diffusing into the gelatin an issue that becomes more relevant in a biological setting. […]"}
{"compound": "CNC[C@H](O)[C@@H](O)[C@H](O)[C@H](O)CO.CNC[C@H](O)[C@@H](O)[C@H](O)[C@H](O)CO.O=C([O-])CN(CCN(CC(=O)[O-])CC(=O)O)CCN(CC(=O)[O-])CC(=O)O.[Gd+3]", "note": "[Magnevist, Gadopentetate dimeglumine]", "diffusion across the dialysis membrane": "porosity large enough to allow gadopentetate dimeglumine (Gd-DTPA) to pass"}
{"assay": "not given", "details": "T1-reducing contrast agents, Table 1; cited from earlier work", "units": {"Average Diameter": "Å"}}
{"compound": "CNC[C@H](O)[C@@H](O)[C@H](O)[C@H](O)CO.CNC[C@H](O)[C@@H](O)[C@H](O)[C@H](O)CO.O=C([O-])CN(CCN(CC(=O)[O-])CC(=O)O)CCN(CC(=O)[O-])CC(=O)O.[Gd+3]", "note": "[Magnevist, Gadopentetate dimeglumine]", "Average Diameter": 10}
{"compound": "CNC(=O)CN(CCN(CCN(CC(=O)[O-])CC(=O)NC)CC(=O)[O-])CC(=O)[O-].[Gd+3]", "note": "[Omniscan, Gadodiamide]", "Average Diameter": 8}
{"compound": "CC(O)CN1CCN(CC(=O)[O-])CCN(CC(=O)[O-])CCN(CC(=O)[O-])CC1.[Gd+3]", "note": "(stereo not shown) [ProHance, Gadoteridol]", "Average Diameter": 7}
{"compound": "COCCNC(=O)CN(CCN(CCN(CC(=O)[O-])CC(=O)NCCOC)CC(=O)[O-])CC(=O)[O-].[Gd+3]", "note": "[OptiMARK, Gadoversetamide]", "Average Diameter": 8}
{"compound": "CCOc1ccc(CC(CN(CCN(CC(=O)[O-])CC(=O)[O-])CC(=O)[O-])N(CC(=O)[O-])CC(=O)[O-])cc1.[Gd+3].[Na+].[Na+]", "note": "(stereo not shown) [Eovist, Gadoxetate Disodium]", "Average Diameter": 9}
{"compound": "O=C([O-])CN(CCN(CC(=O)[O-])CC(COP(=O)([O-])OC1CCC(c2ccccc2)(c2ccccc2)CC1)N(CC(=O)[O-])CC(=O)[O-])CC(=O)[O-].[Gd+3].[Na+].[Na+].[Na+]", "note": "(stereo not shown) [Ablavar, Gadofosveset trisodium]", "Average Diameter": 10}
{"compound": "O=C([O-])CN1CCN(CC(=O)[O-])CCN([C@H](CO)[C@H](O)CO)CCN(CC(=O)[O-])CC1.[Gd+3]", "note": "(racemic) [Gadovist, Gadobutrol]", "Average Diameter": 8}
{"compound": "Gadoterate meglumine [Dotarem]", "Average Diameter": 9}
{"compound": "CNC[C@H](O)[C@@H](O)[C@H](O)[C@H](O)CO.CNC[C@H](O)[C@@H](O)[C@H](O)[C@H](O)CO.O=C([O-])CN(CCN(CC(=O)[O-])CC(=O)O)CCN(CC(=O)O)C(COCc1ccccc1)C(=O)[O-].[Gd+3]", "note": "(stereo not shown) [MultiHance, Gadobenate Dimeglumine]", "Average Diameter": 11}
